Results taken from US11064704B2, “Natural product formulations with improved residual insect repellent/deterrent activity” (University of Mississippi, priority 2016, dated 2021).

Tested on: mosquitoes
Assay: in vivo direct skin application bioassay
Settings: 12.5% application rate
Protocol: Direct skin application bioassays were conducted by using a powder-free latex glove (Diamond Grip, Microflex Corporation, Reno, Nev.). An opening of 3×4 cm was cut through the glove to fit on dorsal surface of the hand (FIG. 1). After wearing the glove, a wristband was used to avoid the biting on the hand near the border of the glove. Approximately, 500 (±5%), consisting primarily of females were transferred to a test cage (45×45×45 cm) using an aspirator. A series of dosages were tested to determine MED for repellency as well as residual activity against mosquitoes. A single test consisted of covering the hand of a volunteer with a powder-free latex glove and treating 12 cm^2 surface area, cut through the glove, on dorsal surface of the hand. Marked skin surface area was treated with the test compound in 50 μl of total volume. Because of constrain of man power, only one volunteer who was provided with a written informed consent participated in this study. A protocol approved by the University of Mississippi Human Use Institutional Review Board (IRB protocol #15-070) was followed.
The test started when the hand treated (3×4 cm area cut through the glove on the dorsal surface) with a test compound was inserted into the mosquito cage. […] Any treatment with […] females biting during 1 min test period was considered as “passed” whereas a treatment with ≥5 bites out of 500 mosquitoes was considered as “failed”. In case of passing the next lower and in case of failure next higher serial dose was tested to reach MED. Additionally, data on the residual repellent activity was recorded by exposing the treatments to the females after every 30 minutes until the treatment failed. Carrot essential oil, carotol and DEET and the mixtures were tested.
Direct skin application bioassays were conducted by using a powder-free latex glove (Diamond Grip™, Microflex Corporation, Reno, Nev.). An opening of 3×4 cm was cut through the glove to fit on the dorsal surface of the hand. After donning the glove, a wristband was used to avoid biting on the hand near the border of the glove. Approximately 500 (±5%) mosquitoes, consisting primarily of females, were transferred to a test cage (45×45×45 cm) using an aspirator. A series of dosages were tested to determine MED for repellency as well as residual activity against mosquitoes.
A single test consisted of covering the hand of a volunteer with a powder-free latex glove and treating a 12 cm^2 surface area, cut through the glove, on the dorsal surface of the hand. Marked skin surface area was treated with the test compound in 50 μl of total volume. Because of constraints of man power, only one volunteer who was provided with a written informed consent participated in this study. A protocol approved by the University of Mississippi Human Use Institutional Review Board (IRB Protocol #15-070) was followed.
The test started when the hand treated (3×4 cm area cut through the glove on the dorsal surface) with a test compound was inserted into the mosquito cage. […] Any treatment with ≤5 females biting during the 1 min test period was considered as “passed”, whereas a treatment with ≥5 bites out of 500 mosquitoes was considered as “failed”. In case of passing, the next lower, and in case of failure, the next higher, serial dose was tested to reach MED. Additionally, data on the residual repellent activity were recorded by exposing the treatments to the females after every 30 minutes until the treatment failed. Carrot seed essential oil, carotol, geranium and lemon Eucalyptus essential oils, DEET, picaridin and the mixtures were tested.

CCCCCCCCCCC(=O)O [Undecanoic acid, undecanoic acid, reference compound]
residual activity: time post application at which MED reached/crossed: 1.5 h
